Reference: PubChem BioAssay (NCI)
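The compound was tested at five concentrations on cells cultured in 96-well plates, with a 48-hour exposure period. GI50 marks 50% less growth. Definition used: TGI = concentration required for complete inhibition of growth.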

How the values were obtained:
Assay in all cases: inhibition of tumour cell growth, NCI panel, 48 h
[1] = system: 786-0 renal
[2] = system: ACHN renal
[3] = system: UO-31 renal
[4] = system: HL-60(TB) leukemia
[5] = system: HOP-62 NSCLC
[6] = system: MCF7 breast
[7] = system: TK-10 renal
[8] = system: CAKI-1 renal
[9] = system: EKVX NSCLC
[10] = system: NCI/ADR-RES ovarian

| SMILES | TGI [1] [µM] | TGI [2] [µM] | TGI [3] [µM] | TGI [4] [µM] | TGI [5] [µM] | TGI [6] [µM] | TGI [7] [µM] | TGI [8] [µM] | TGI [9] [µM] | GI50 [1] [µM] | GI50 [2] [µM] | GI50 [3] [µM] | GI50 [4] [µM] | GI50 [5] [µM] | GI50 [6] [µM] | GI50 [7] [µM] | GI50 [8] [µM] | GI50 [9] [µM] | GI50 [10] [µM] | TGI [10] [µM] |
| --- | --- | --- | --- | --- | --- | --- | --- | --- | --- | --- | --- | --- | --- | --- | --- | --- | --- | --- | --- | --- |
| Cc1cc(Cl)cc2c(N=Nc3ccccc3[N+](=O)[O-])c(O)[nH]c12 | > 100 | > 100 | > 100 | > 100 | > 100 | > 100 | > 100 | > 100 | > 100 |  |  |  |  |  |  |  |  |  |  |  |
| Nc1nc2sc3ccccc3c(=O)n2n1 | > 100 | > 100 | > 100 | > 100 | > 100 |  | > 100 | > 100 | > 100 |  |  |  |  |  |  |  |  |  |  |  |
| Cc1oc2c(C)c3oc(=O)cc(C)c3cc2c1CNC(=O)[C@@H]1OCCOCCOCCOCCOCCOC1C(=O)O (some centres not stated) | 45 | > 100 | > 100 | > 100 | > 100 |  | > 100 | > 100 | > 100 |  |  |  |  |  |  |  |  |  |  |  |
| CN(C)CCN(C)CC1COC(C)(C)O1 (configuration not stated) | > 100 | > 100 | > 100 | > 100 | > 100 |  | > 100 | > 100 | > 100 |  |  |  |  |  |  |  |  |  |  |  |
| CSc1cccc(-n2c3nc(=O)n(C)c(=O)c-3nc3ccccc32)c1 | 33.4 | 13.2 | 32.9 | 16.7 | 45.3 |  | 40.9 | 19.7 | 36.6 |  |  |  |  |  |  |  |  |  |  |  |
| COc1ccc(NC(=O)CC(=O)N2N=C(N(CCC#N)c3ccccc3Cl)CC2c2ccccc2)cc1 (configuration not stated) | > 100 | > 100 | > 100 | > 100 | > 100 |  | > 100 | > 100 | > 100 |  |  |  |  |  |  |  |  |  |  |  |
| COc1ccc2c(c1)C(=O)N1CCOC1C2C(=O)O (configuration not stated) | > 100 | > 100 | > 100 | > 100 | > 100 |  | > 100 | > 100 | > 100 |  |  |  |  |  |  |  |  |  |  |  |
| O=c1ccc(N=Nc2ccc([N+](=O)[O-])cc2)ccc1O | > 100 | > 100 | > 100 | 38.8 | > 100 | > 100 | > 100 | > 100 | > 100 | 5.99 | 7.07 | 5.35 | 3.47 | 18.1 | 4 | 20 | 7.79 | 4.29 |  |  |
| NC(=O)C#CC#CC#CCO | 2.93 | 2.61 | 3.68 | 3.01 | 23.1 |  | 3.01 |  |  |  |  |  |  |  |  |  |  |  |  |  |
| COC(=O)C1CCC(Nc2ccc(C)cc2C)=N1 (configuration not stated) | > 100 | > 100 | > 100 | > 100 | > 100 |  | > 100 | > 100 | > 100 |  |  |  |  |  |  |  |  |  |  |  |
| N#CC(C(=O)/C(=N/NC(=O)c1ccccc1O)C(C#N)c1ccccc1)c1ccccc1 (configuration not stated) | > 100 | > 100 | > 100 |  | > 100 |  | > 100 |  | > 100 |  |  |  |  |  |  |  |  |  |  |  |
| CCCCCCCC(=O)NCC(O)CNC(=O)CCCCCCC | > 100 |  | > 100 | > 100 | > 100 |  | > 100 | > 100 | > 100 |  |  |  |  |  |  |  |  |  |  |  |
| N#CC(/C(=N/NC(=O)C(=O)NN)C(=O)Nc1nc([N+](=O)[O-])cs1)c1ccc(Cl)cc1 (configuration not stated) | > 100 | > 100 | > 100 | > 100 | > 100 |  | > 100 |  | > 100 |  |  |  |  |  |  |  |  |  |  |  |
| CC1OC(n2ccc(=O)[nH]c2=O)C=C(OC(=O)c2ccccc2)C1=O (configuration not stated) | > 100 | > 100 | > 100 | > 100 | > 100 |  | > 100 | > 100 | > 100 |  |  |  |  |  |  |  |  |  |  |  |
| [Cl][Sn]([Cl])([c]1ccccc1)[c]1ccccc1 | 16.7 | 27.5 | 33.5 | 31.1 |  |  | 29.7 | 6.52 | 32.1 | 4.8 | 14.4 | 19.4 | 4.03 |  |  | 15.7 | 2.29 | 17.8 |  |  |
| Cc1ccccc1C1=[N+]([O-])c2ccccc2C1=O | 31.3 | 30.6 | 36.6 | 28.9 | 57.2 |  | 32.2 |  | 35.4 |  |  |  |  |  |  |  |  |  |  |  |
| N#C/C(=N\Nc1ccc(Cl)cc1)C(=O)Nc1cc(-c2ccccc2)nn1-c1ccccc1 | > 100 | > 100 | > 100 | 9.38 | > 100 |  | > 100 |  | > 100 | 4.05 | 2.84 | 2.93 | 3.05 | 3.31 |  | 4.82 |  | 2.64 | 3.09 | > 100 |

| SMILES | TGI [1] [µM] | TGI [2] [µM] | TGI [3] [µM] | TGI [4] [µM] | TGI [5] [µM] | TGI [6] [µM] | TGI [7] [µM] | TGI [8] [µM] | TGI [9] [µM] | GI50 [1] [µM] | GI50 [2] [µM] | GI50 [3] [µM] | GI50 [4] [µM] | GI50 [5] [µM] | GI50 [6] [µM] | GI50 [7] [µM] | GI50 [8] [µM] | GI50 [9] [µM] | GI50 [10] [µM] | TGI [10] [µM] |
| --- | --- | --- | --- | --- | --- | --- | --- | --- | --- | --- | --- | --- | --- | --- | --- | --- | --- | --- | --- | --- |
| CCOc1ccc(NC(=O)C2=C(C)NC(C)=C(C(=O)Nc3ccc(OCC)cc3)C2c2ccc(O)c(OC)c2)cc1 | > 100 | > 100 | > 100 | > 100 | 92.9 |  | > 100 | > 100 | > 100 |  |  |  |  |  |  |  |  |  |  |  |
| Nc1nc(NCCO)c(N=O)c(=O)[nH]1 | > 100 | > 100 | > 100 | > 100 | > 100 |  | > 100 | > 100 | > 100 |  |  |  |  |  |  |  |  |  |  |  |
| Cc1ccccc1C1OC(=O)c2ccccc21 (configuration not stated) | > 100 | > 100 | > 100 | > 100 | > 100 |  | > 100 |  | > 100 |  |  |  |  |  |  |  |  |  |  |  |
| O=C(C=Nc1ccccc1C(=O)[O-])c1cccs1.O=C(C=Nc1ccccc1C(=O)[O-])c1cccs1.[Co+2] | > 100 | > 100 | > 100 | > 100 | > 100 |  | > 100 | > 100 |  |  |  |  |  |  |  |  |  |  |  |  |
| CCCOC(=O)C1CCC(=O)N1C(=O)C(C)Cl (configuration not stated) | > 100 | > 100 | > 100 | > 100 | > 100 |  | > 100 | > 100 | > 100 |  |  |  |  |  |  |  |  |  |  |  |
| CCOC(=O)c1c(-c2ccccc2)oc(-c2ccccc2)c1C(=O)OCC | > 100 | > 100 | > 100 | > 100 | > 100 |  | > 100 |  | > 100 |  |  |  |  |  |  |  |  |  |  |  |
| CC(=O)N1c2ccccc2C2=CC3C4C(=O)N(c5ccccc5)C(=O)C4C21C1C(=O)N(c2ccccc2)C(=O)C31 (configuration not stated) | > 100 | > 100 | > 100 | 58.8 |  |  | > 100 | > 100 |  |  |  |  |  |  |  |  |  |  |  |  |
| CC[O-].CC[O-].O=C([CH-]C(=O)c1cccnc1)c1ccccc1.O=C([CH-]C(=O)c1cccnc1)c1ccccc1.[Ti+4] | > 100 | > 100 | > 100 | 85 | > 100 |  |  | > 100 | > 100 | 61.1 | 53.4 | > 100 | 27.9 | 48.4 |  |  | > 100 | > 100 |  |  |
| O=c1cc(-c2ccccc2)oc2cc(O)c(O)c(O)c12 | 27.3 | > 100 | > 100 | > 100 | 31.2 |  | 81.2 | 19 | 63.3 | 9.87 | 9.32 | 13.9 | 55.1 | 9.49 |  | 28 | 4.57 | 18.9 | 16 | 44.6 |
| COc1cc2c(cc1O)-c1c(cnn1-c1ccc([N+](=O)[O-])cc1)CCC2 | > 100 | 14.6 |  |  | > 100 | > 100 | 32.6 | 38.5 | 80.5 |  |  |  |  |  |  |  |  |  |  | 42.7 |
| COC(c1cccc(C(O)(C(F)(F)F)C(F)(F)F)c1)(C(F)(F)F)C(F)(F)F | 31.8 | 29.2 | 34.2 |  | 33.7 |  | 36.6 | 39.7 | 33.3 |  |  |  |  |  |  |  |  |  |  |  |
| O=C(O)C1=CCCc2ccc3ccccc3c21 | > 100 | > 100 | > 100 |  |  |  | > 100 |  | > 100 |  |  |  |  |  |  |  |  |  |  |  |
| O=C(CCC(=O)Nc1cccc(Cl)c1)CC(=O)c1ccc(F)cc1 | > 100 | > 100 | > 100 | > 100 | > 100 |  | > 100 | > 100 |  |  |  |  |  |  |  |  |  |  |  |  |
| CC(C)(O)C#Cc1ccc(/C=C/C(=O)c2ccccc2)s1 | 28.8 | 30.7 | 27.6 |  |  | 16.7 | 35.8 | 30.6 | 32 | 14.8 | 17 | 14.5 |  |  | 3.63 | 19.4 | 16.9 | 17.9 | 18.3 | 39 |
| Cn1c2c(c3ccccc31)CCN(CCN1CCN(c3ccccc3)CC1)C2=O | > 100 | > 100 | > 100 | > 100 |  |  | > 100 | > 100 | > 100 |  |  |  |  |  |  |  |  |  |  |  |
| CCN(CC)CCCn1cnc2ncccc2c1=O | > 100 | > 100 | > 100 |  | > 100 |  | > 100 | > 100 | > 100 |  |  |  |  |  |  |  |  |  |  |  |
| C/C(=N\NC(N)=S)c1cc(C)c(C)cc1C | > 100 | > 100 | > 100 | 65.5 | > 100 |  | > 100 | > 100 | > 100 |  |  |  |  |  |  |  |  |  |  |  |
